Values joined by “and” are separate entries in the source; they are usually repeats but may differ in a detail not shown here. Equal values may be shown once. “Also recorded” adds a separate entry of the source.
Tests used:
Type in all cases: in vivo
Ad5 McEwen = assay: Ad5/NZW rabbit ocular model, Example 3 (Ad-R1)
Procedure: The purpose of this study is to determine the antiviral efficacy of a 100 mg/ml solution of human Intra Venous Immune Globulin (IG) in the Ad5/NZW rabbit ocular model.
Fifteen NZW female rabbits 2-3 lbs were received from Myrtle's Rabbitry, Thompson Station, Tenn. Fifteen rabbits were inoculated in both eyes following general anesthesia with ketamine & xylazine, topical anesthesia with proparacaine, and corneal scarification (12 cross-hatched strokes of a #25 needle) with 50 μl of 3.0×10^7 pfu/ml (1.5×10^6 pfu/eye or 1.5×10^8 vp/eye) of Ad5 McEwen (Stock P3, Feb. 25, 05, 5.3×10^8 pfu/ml). Eyes were closed and gently rubbed for 5 seconds to ensure contact of the virus on all ocular surfaces.
Eyes were cultured for virus after at least 3 hours (Day 0) after infection. Following topical anesthesia with proparacaine, a single cotton-tipped swab was placed into the lower fornix of each eye, rolled over the cornea into the upper fornix to recover adenovirus from the tear film and corneal and conjunctival surfaces. The swabs from each eye were placed individually into tubes containing 1 ml of outgrowth media and were frozen at −70° C. pending plaque assay. On Day 1, rabbits were divided into 3 treatment groups of 5 rabbits each. Two masked solutions were received. One solution contained 100 mg/ml of IG (Gammagard S/D) and one solution contained pharmaceutical grade saline for use as the negative control. The positive antiviral control, 0.5% cidofovir was not masked because of the differences in treatment regimen. The solutions were stored at 4° C. until and during use.
Drops were administered with at least a 1 hour interval between drops. All eyes from all groups were cultured for virus on days 1, 3, 4, 5, 7, 9, 11, and 14 at least one hour after the final doses of the treatments described above. At various times during the course of the experiment, Ad5 titers were determined on A549 cell monolayers using a standard plaque assay. The ocular cultures to be titered were thawed, diluted (1:10) and inoculated onto A549 monolayers. The virus was adsorbed for 3 hours. Following adsorption, 1 ml of media plus 0.5% methylcellulose was added to each well, and the plates were incubated at 37° C. in a 5% CO2-water vapor atmosphere. After 7 days incubation, the cells were stained with 0.5% gentian violet, and the number of plaques were counted under a dissecting microscope (25×). The viral titers were then calculated, and expressed as plaque-forming units per milliliter (pfu/ml).
Analysis of Results: Data were analyzed statistically using True Epistat and/or Minitab statistical software. Outcome measures included: Ad5-Positive Cultures per Total (Overall [Days 1-14]; Early Phase of Infection [Days 1-5]; Late Phase of Infection [Days 7-14]), Daily Viral Titers, Mean Viral Titer (Early Phase of Infection [Days 1-5]; Late Phase of Infection [Days 7-14]), and Duration of Shedding. Significance was established at the p≦0.05 confidence level.
Duration of viral shedding is shown in Table 8 and was statistically analyzed. The duration of viral shedding in IG treated animals was 5.4 days (standard deviation of 0.84 days). In the Cidofovir treated animals, the duration of viral shedding was 5.0 (SD=1.25 days) while it was longer in the normal saline treated group: 7.2 days (SD=1.14 days). The significant finding is represented graphically in FIG. 8. In this analysis, IG was similar to Cidofovir in reducing the duration of viral shedding.

Ad5 [1] = assay: Ad5/NZW rabbit ocular model, combined analysis of Examples 3 and 5
Text: The following summarizes the in vivo studies provided in Examples 3 and 5. Data from the two studies were combined, analyzed by Minitab statistical software using Analysis of Variance (ANOVA), and X^2 analyses. Significance was established at the p<0.05 confidence.
The daily reduction in percent Ad5 positive cultures per total for all treatment groups is presented graphically in FIG. 4.
The mean combined Ad5 ocular titers represent a global measure of adenovirus replication during the early and late phases of infection. These were determined by calculating the mean and standard deviation of all ocular cultures from each treatment group during the early and late phases (n=80 for all groups).
The mean duration of shedding was estimated by determining the last day on which adenovirus positive cultures were obtained and calculating the mean and standard deviation.

Ad5 [2] = assay: as above; conditions: n=20 eyes per group, FIG. 12
[3] = Days 1-5, Early Phase of Infection
[4] = Days 7-14, Late Phase of Infection

Nc1ccn(C[C@@H](CO)OCP(=O)(O)O)c(=O)n1 [0.5% Cidofovir, Cidofovir]
Daily Ad5 ocular titer, Median (Ad5 McEwen; D0): 2350 pfu/ml | Daily Ad5 ocular titer, TrMean (Ad5 McEwen; D0): 2988 pfu/ml | Daily Ad5 ocular titer, Mean (Ad5 McEwen; D0, N 10 eyes): 3214 pfu/ml | Ad5 ocular viral titer, individual eye (Ad5 McEwen; D 0, after infection, before treatment): 2450 pfu/ml and 1950 pfu/ml and 4250 pfu/ml and 1100 pfu/ml and 2250 pfu/ml and 6650 pfu/ml and 7200 pfu/ml and 3100 pfu/ml and 2150 pfu/ml and 1040 pfu/ml | Ad5 ocular viral titer, individual eye (Ad5 McEwen; D 1): 450 pfu/ml (2×) and 475 pfu/ml and 1000 pfu/ml and 5 pfu/ml and 550 pfu/ml (2×) and 1550 pfu/ml and 1800 pfu/ml and 330 pfu/ml | Daily Ad5 ocular titer, Mean (Ad5 McEwen; D 1): 716 pfu/ml | Daily Ad5 ocular titer, Median (Ad5 McEwen; D 1): 512 pfu/ml | Daily Ad5 ocular titer, TrMean (Ad5 McEwen; D 1): 669 pfu/ml | Ad5 ocular viral titer, individual eye (Ad5 McEwen; D 3): 4250 pfu/ml and 3800 pfu/ml and 2700 pfu/ml and 130 pfu/ml and 9350 pfu/ml and 8200 pfu/ml and 9300 pfu/ml and 100 pfu/ml and 350 pfu/ml and 210 pfu/ml | Daily Ad5 ocular titer, Mean (Ad5 McEwen; D 3): 3839 pfu/ml | Daily Ad5 ocular titer, Median (Ad5 McEwen; D 3): 3250 pfu/ml | Daily Ad5 ocular titer, TrMean (Ad5 McEwen; D 3): 3617 pfu/ml | Ad5 ocular viral titer, individual eye (Ad5 McEwen; D 4): 650 pfu/ml and 400 pfu/ml and 6700 pfu/ml and 1150 pfu/ml and 4700 pfu/ml and 2350 pfu/ml and 1800 pfu/ml and 25 pfu/ml and 0 pfu/ml and 80 pfu/ml | Daily Ad5 ocular titer, Mean (Ad5 McEwen; D 4): 1785 pfu/ml | Daily Ad5 ocular titer, Median (Ad5 McEwen; D 4): 900 pfu/ml | Daily Ad5 ocular titer, TrMean (Ad5 McEwen; D 4): 1394 pfu/ml | Ad5 ocular viral titer, individual eye (Ad5 McEwen; D 5): 550 pfu/ml and 10 pfu/ml and 1550 pfu/ml and 0 pfu/ml (3×) and 400 pfu/ml and 1400 pfu/ml and 1100 pfu/ml and 5 pfu/ml | Daily Ad5 ocular titer, Mean (Ad5 McEwen; D 5): 501 pfu/ml | Daily Ad5 ocular titer, Median (Ad5 McEwen; D 5): 205 pfu/ml | Daily Ad5 ocular titer, TrMean (Ad5 McEwen; D 5): 433 pfu/ml | Ad5 ocular viral titer, individual eye (Ad5 McEwen; D 7): 0 pfu/ml (8×) and 5 pfu/ml and 15 pfu/ml | Daily Ad5 ocular titer, Mean (Ad5 McEwen; D 7): 2.00 pfu/ml | Daily Ad5 ocular titer, Median (Ad5 McEwen; D 7): 0.00 pfu/ml | Daily Ad5 ocular titer, TrMean (Ad5 McEwen; D 7): 0.62 pfu/ml | Ad5 ocular viral titer, individual eye (Ad5 McEwen; D 9): 0 pfu/ml | Daily Ad5 ocular titer, Mean (Ad5 McEwen; D 9): 0.00000 pfu/ml | Daily Ad5 ocular titer, Median (Ad5 McEwen; D 9): 0.00000 pfu/ml | Daily Ad5 ocular titer, TrMean (Ad5 McEwen; D 9): 0.00000 pfu/ml | Ad5 ocular viral titer, individual eye (Ad5 McEwen; D 11): 0 pfu/ml | Daily Ad5 ocular titer, Mean (Ad5 McEwen; D 11): 0.00000 pfu/ml | Daily Ad5 ocular titer, Median (Ad5 McEwen; D 11): 0.00000 pfu/ml | Daily Ad5 ocular titer, TrMean (Ad5 McEwen; D 11): 0.00000 pfu/ml | Ad5 ocular viral titer, individual eye (Ad5 McEwen; D 14): 0 pfu/ml | Daily Ad5 ocular titer, Mean (Ad5 McEwen; D 14): 0.00000 pfu/ml | Daily Ad5 ocular titer, Median (Ad5 McEwen; D 14): 0.00000 pfu/ml | Daily Ad5 ocular titer, TrMean (Ad5 McEwen; D 14): 0.00000 pfu/ml | Positive Cultures per Total (Ad5 McEwen; Day 0, before treatment): 10/10 | Positive Cultures per Total, percent (Ad5 McEwen; Day 0, before treatment): 100% | Positive Cultures per Total (Ad5 McEwen; Day 1): 10/10 | Positive Cultures per Total, percent (Ad5 McEwen; Day 1): 100% | Positive Cultures per Total (Ad5 McEwen; Day 3): 10/10 | Positive Cultures per Total, percent (Ad5 McEwen; Day 3): 100% | Positive Cultures per Total (Ad5 McEwen; Day 4): 9/10 | Positive Cultures per Total, percent (Ad5 McEwen; Day 4): 90% | Positive Cultures per Total (Ad5 McEwen; Day 5): 7/10 | Positive Cultures per Total, percent (Ad5 McEwen; Day 5): 70% | Positive Cultures per Total (Ad5 McEwen; Day 7): 2/10 | Positive Cultures per Total, percent (Ad5 McEwen; Day 7): 20% | Positive Cultures per Total (Ad5 McEwen; Day 9): 0/10 | Positive Cultures per Total, percent (Ad5 McEwen; Day 9): 0% | Positive Cultures per Total (Ad5 McEwen; Day 11): 0/10 | Positive Cultures per Total, percent (Ad5 McEwen; Day 11): 0% | Positive Cultures per Total (Ad5 McEwen; Day 14): 0/10 | Positive Cultures per Total, percent (Ad5 McEwen; Day 14): 0% | Positive Cultures per Total, Total (Ad5 McEwen; [3]): 36/40 | Positive Cultures per Total, Total (%) (Ad5 McEwen; [3]): 90% | Positive Cultures per Total, Total (Ad5 McEwen; Days 1-14): 38/80 | Positive Cultures per Total, Total (%) (Ad5 McEwen; Days 1-14): 47.5% | Positive Cultures per Total, Total (%) (Ad5 McEwen; Days 1-14, listed as Cidofovir): 47.5% | Positive Cultures per Total, Total (Ad5 McEwen; [4]): 2/40 | Positive Cultures per Total, Total (%) (Ad5 McEwen; [4]): 5% | Positive Cultures per Total, Total (%) (Ad5 McEwen; Days 7-14, Late Phase of Infection, listed as Cidofovir): 5% | Mean Combined Ocular Titers Days 7-14, comparison (Ad5 McEwen; Late Phase): significantly lower Mean Combined Ocular Titers Days 7-14 compared with NPR | Positive Cultures per Total Days 7-14, comparison (Ad5 McEwen; Late Phase): significantly fewer Positive Cultures per Total Days 7-14 compared with NPR | Antiviral efficacy, conclusion (Ad5 McEwen; compared to Saline control): demonstrated its proven antiviral efficacy | Mean Daily Ocular Titers, statistical comparison (Ad5 McEwen; days as stated): significantly lower titers on Days 1 and 7 compared with NPR | Duration of Shedding, individual eye (Ad5 McEwen; final day with positive Ad5 culture, listed as CDV): 5 days (5×) and 4 days (2×) and 7 days (2×) and 3 days | Duration of viral shedding, group mean (Ad5 McEwen; mean of 10 eyes): 5.0 days | Mean Duration of Shedding, comparison (Ad5 McEwen; rabbit, in vivo): significantly shorter durations of shedding compared with the NPR | Adenoviral Positive Culture/total, Early Phase (Ad5 [1]; Days 1-5): 72/80 | Adenoviral Positive Culture/total, Early Phase, percent (Ad5 [1]; Days 1-5): 90.0% | Mean Combined Ad5 titer, Early Phase, Mean ± Sd (Ad5 [1]; Days 1-5, n = 80): 1.4 ± 2.1 × 10^3 pfu/ml | Adenoviral Positive Culture/total, Overall (Ad5 [1]; Days 1-14): 78/160 | Adenoviral Positive Culture/total, Overall, percent (Ad5 [1]; Days 1-14): 48.75% | Adenoviral Positive Culture/total, Late Phase (Ad5 [1]; Days 7-14): 6/80 | Adenoviral Positive Culture/total, Late Phase, percent (Ad5 [1]; Days 7-14): 7.5% | Mean Combined Ad5 titer, Late Phase, Mean ± Sd (Ad5 [1]; Days 7-14, n = 80): 0.8 ± 0.4 × 10^0 pfu/ml | Duration of Ad5 Shedding, Mean ± Sd (Ad5 [1]; n = 20): 5.3 ± 1.3 days | Antiviral activity, overall comparison (Ad5 [1]; rabbit, in vivo): equivalent antiviral inhibitory activity | Duration of shedding, comparison (Ad5 [1]; rabbit, in vivo): significantly decreased the duration of shedding compared with the saline control; also recorded: significantly decreased the Mean Duration of shedding compared with IG | Daily Ad5 positive cultures per total, comparison (words) (Ad5 [2]): significantly fewer Ad5 positive cultures per total compared with the Saline control on Days 7 and 9 | Daily Ad5 positive cultures per total, comparison (words) (Ad5 [2]; listed as cidofovir): significant decreases in the number of Ad5 positive cultures per total on Days 7 and 9 compared with the saline treated eyes
